Laboratory results reported in PubChem BioAssay (NCI).
Several values for one entry are separate records, joined by “and”; a condition that tells them apart may be missing. Equal entries are not always repeated.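 Assay format: 96-well plates, 48-hour exposure. GI50 = concentration required for 50% inhibition of growth. TGI is the concentration that stops growth completely.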

Assays:
Experiment in all cases: growth of human tumour cells (NCI), 48 h
786-0 renal = tested on: 786-0 renal
A498 renal = tested on: A498 renal
A549 NSCLC = tested on: A549 NSCLC
ACHN renal = tested on: ACHN renal
BT-549 breast = tested on: BT-549 breast
CAKI-1 renal = tested on: CAKI-1 renal
CCRF-CEM leukemia = tested on: CCRF-CEM leukemia
COLO 205 colon = tested on: COLO 205 colon
DU-145 prostate = tested on: DU-145 prostate
EKVX NSCLC = tested on: EKVX NSCLC
HCC-2998 colon = tested on: HCC-2998 colon
HCT-116 colon = tested on: HCT-116 colon
HCT-15 colon = tested on: HCT-15 colon
HL-60(TB) leukemia = tested on: HL-60(TB) leukemia
HOP-62 NSCLC = tested on: HOP-62 NSCLC
HOP-92 NSCLC = tested on: HOP-92 NSCLC
HS 578T breast = tested on: HS 578T breast
HT29 colon = tested on: HT29 colon
IGROV1 ovarian = tested on: IGROV1 ovarian
K-562 leukemia = tested on: K-562 leukemia
KM12 colon = tested on: KM12 colon
LOX IMVI melanoma = tested on: LOX IMVI melanoma
M14 melanoma = tested on: M14 melanoma
MALME-3M melanoma = tested on: MALME-3M melanoma
MCF7 breast = tested on: MCF7 breast
MDA-MB-231 breast = tested on: MDA-MB-231 breast
MDA-MB-435 = tested on: MDA-MB-435
MOLT-4 leukemia = tested on: MOLT-4 leukemia
NCI-H226 lung = tested on: NCI-H226 lung
NCI-H23 lung = tested on: NCI-H23 lung
NCI-H460 lung = tested on: NCI-H460 lung
NCI-H522 lung = tested on: NCI-H522 lung
NCI/ADR-RES ovarian = tested on: NCI/ADR-RES ovarian
OVCAR-3 ovarian = tested on: OVCAR-3 ovarian
OVCAR-4 ovarian = tested on: OVCAR-4 ovarian
OVCAR-5 ovarian = tested on: OVCAR-5 ovarian
OVCAR-8 ovarian = tested on: OVCAR-8 ovarian
PC-3 prostate = tested on: PC-3 prostate
RPMI-8226 leukemia = tested on: RPMI-8226 leukemia
RXF 393 renal = tested on: RXF 393 renal
SF-268 CNS = tested on: SF-268 CNS
SF-295 CNS = tested on: SF-295 CNS
SF-539 CNS = tested on: SF-539 CNS
SK-MEL-2 melanoma = tested on: SK-MEL-2 melanoma
SK-MEL-28 melanoma = tested on: SK-MEL-28 melanoma
SK-MEL-5 melanoma = tested on: SK-MEL-5 melanoma
SK-OV-3 ovarian = tested on: SK-OV-3 ovarian
SN12C renal = tested on: SN12C renal
SNB-19 CNS = tested on: SNB-19 CNS
SNB-75 CNS = tested on: SNB-75 CNS
SR leukemia = tested on: SR leukemia
SW-620 colon = tested on: SW-620 colon
T-47D breast = tested on: T-47D breast
TK-10 renal = tested on: TK-10 renal
U251 CNS = tested on: U251 CNS
UACC-257 melanoma = tested on: UACC-257 melanoma
UACC-62 melanoma = tested on: UACC-62 melanoma
UO-31 renal = tested on: UO-31 renal

CC(C)C[C@@H](NC(=O)[C@@H](Cc1ccccc1)NC(=O)c1cnccn1)B1Oc2ccc(C[C@H](NC(=O)[C@H](Cc3ccc4c(c3)OB([C@@H](CC(C)C)NC(=O)[C@@H](Cc3ccccc3)NC(=O)c3cnccn3)O4)NC(=O)[C@@H](N)CC3CCC4OB([C@@H](CC(C)C)NC(=O)[C@@H](CC5CCCCC5)NC(=O)C5CNCCN5)OC4C3)C(=O)NCCCC[C@@H]3NC(=O)[C@@H](Cc4ccccc4)NC(=O)[C@H](CC(=O)O)NC(=O)CNC(=O)[C@H](CCCNC(=N)N)NC3=O)cc2O1 (stereo not given in full)
GI50 (786-0 renal): 3.68 nM and 2.5 nM
GI50 (A498 renal): 3.36 nM and 2.5 nM
TGI (A498 renal): 10.7 nM and 5.35 nM
GI50 (A549 NSCLC): 7.23 nM and 8.38 nM
TGI (A549 NSCLC): 321 nM
GI50 (ACHN renal): 3.95 nM and 2.5 nM
TGI (ACHN renal): 257 nM and 283 nM
GI50 (BT-549 breast): 2.58 nM and 2.5 nM
TGI (BT-549 breast): 8.12 nM and 3.01 nM
GI50 (CAKI-1 renal): 3.55 nM and 7.13 nM
TGI (CAKI-1 renal): 22.2 nM and 38.3 nM
GI50 (CCRF-CEM leukemia): 3.82 nM and 2.5 nM
TGI (CCRF-CEM leukemia): > 25000 nM
GI50 (COLO 205 colon): 5.51 nM and 5.55 nM
TGI (COLO 205 colon): 293 nM and 86.4 nM
GI50 (DU-145 prostate): 5.74 nM and 2.5 nM
TGI (DU-145 prostate): 2980 nM
GI50 (EKVX NSCLC): 10.6 nM and 7.75 nM
TGI (EKVX NSCLC): 527 nM and 304 nM
GI50 (HCC-2998 colon): 6.49 nM and 3.89 nM
TGI (HCC-2998 colon): 19.8 nM and 7.63 nM
GI50 (HCT-116 colon): 2.73 nM and 2.5 nM
TGI (HCT-116 colon): 16.4 nM and 2.9 nM
GI50 (HCT-15 colon): 4.85 nM and 3.49 nM
TGI (HCT-15 colon): 41 nM and 40.9 nM
GI50 (HL-60(TB) leukemia): 4.42 nM
TGI (HL-60(TB) leukemia): 853 nM
GI50 (HOP-62 NSCLC): 7.45 nM and 6.55 nM
TGI (HOP-62 NSCLC): 46.3 nM and 17.7 nM
GI50 (HOP-92 NSCLC): 3.69 nM and 2.5 nM
TGI (HOP-92 NSCLC): 26.7 nM and 9.53 nM
GI50 (HS 578T breast): 4.19 nM and 2.5 nM
TGI (HS 578T breast): > 25000 nM
GI50 (HT29 colon): 3.73 nM and 2.5 nM
GI50 (IGROV1 ovarian): 21.7 nM and 2.5 nM
TGI (IGROV1 ovarian): 250 nM and 917 nM
GI50 (K-562 leukemia): 0.713 nM and 2.5 nM
TGI (K-562 leukemia): > 25000 nM
GI50 (KM12 colon): 3.94 nM and 2.95 nM
TGI (KM12 colon): 15.2 nM and 8.16 nM
GI50 (LOX IMVI melanoma): 2.41 nM and < 2.5 nM
TGI (LOX IMVI melanoma): 6.6 nM and < 2.5 nM
GI50 (M14 melanoma): 3.22 nM and 2.5 nM
GI50 (MALME-3M melanoma): 3.23 nM and 2.5 nM
TGI (MALME-3M melanoma): 105 nM and 20.6 nM
GI50 (MCF7 breast): 3.78 nM and 2.5 nM
TGI (MCF7 breast): 439 nM
GI50 (MDA-MB-231 breast): 7.73 nM and 2.5 nM
TGI (MDA-MB-231 breast): 56 nM and 20.5 nM
GI50 (MDA-MB-435): 2.06 nM and < 2.5 nM
TGI (MDA-MB-435): 4.52 nM and < 2.5 nM
GI50 (MOLT-4 leukemia): 3.56 nM and 2.5 nM
TGI (MOLT-4 leukemia): > 25000 nM
GI50 (NCI-H226 lung): 2.29 nM
TGI (NCI-H226 lung): 4.54 nM
GI50 (NCI-H23 lung): 5.68 nM and 2.5 nM
TGI (NCI-H23 lung): 41.2 nM and 10.8 nM
GI50 (NCI-H460 lung): 25.3 nM and 7.96 nM
TGI (NCI-H460 lung): 115 nM and 32.2 nM
GI50 (NCI-H522 lung): 3.33 nM and 2.5 nM
TGI (NCI-H522 lung): 17.9 nM and 3.85 nM
GI50 (NCI/ADR-RES ovarian): 54.8 nM and 17.4 nM
TGI (NCI/ADR-RES ovarian): 669 nM and 148 nM
GI50 (OVCAR-3 ovarian): 2.53 nM and 2.5 nM
TGI (OVCAR-3 ovarian): 6.73 nM and 3.27 nM
GI50 (OVCAR-4 ovarian): 5.05 nM and 2.5 nM
TGI (OVCAR-4 ovarian): 181 nM and 548 nM
GI50 (OVCAR-5 ovarian): 7.84 nM and 3.82 nM
TGI (OVCAR-5 ovarian): 132 nM and 360 nM
GI50 (OVCAR-8 ovarian): 22 nM and 8.17 nM
GI50 (PC-3 prostate): 13.5 nM and 6.32 nM
TGI (PC-3 prostate): 186 nM and 60.4 nM
GI50 (RPMI-8226 leukemia): 4.32 nM and 2.5 nM
TGI (RPMI-8226 leukemia): 243 nM and 109 nM
GI50 (RXF 393 renal): 2.44 nM and < 2.5 nM
TGI (RXF 393 renal): 5.8 nM and < 2.5 nM
GI50 (SF-268 CNS): 4.1 nM and 2.8 nM
TGI (SF-268 CNS): 27.9 nM and 13.6 nM
GI50 (SF-295 CNS): 3.65 nM and 2.5 nM
TGI (SF-295 CNS): 17.2 nM and 7.68 nM
GI50 (SF-539 CNS): 2.51 nM and < 2.5 nM
TGI (SF-539 CNS): 7.22 nM and < 2.5 nM
GI50 (SK-MEL-2 melanoma): 5.45 nM and 2.5 nM
TGI (SK-MEL-2 melanoma): 64.9 nM and 9.2 nM
GI50 (SK-MEL-28 melanoma): 5.63 nM and 2.5 nM
TGI (SK-MEL-28 melanoma): 517 nM and 106 nM
GI50 (SK-MEL-5 melanoma): 3.01 nM and 2.5 nM
TGI (SK-MEL-5 melanoma): 8.71 nM and 4.81 nM
GI50 (SK-OV-3 ovarian): 30.9 nM and 7.54 nM
TGI (SK-OV-3 ovarian): 694 nM
GI50 (SN12C renal): 7.93 nM and 4.85 nM
TGI (SN12C renal): 80.4 nM and 31.9 nM
GI50 (SNB-19 CNS): 13.6 nM and 2.5 nM
TGI (SNB-19 CNS): 4700 nM
GI50 (SNB-75 CNS): 3.92 nM
TGI (SNB-75 CNS): 24.8 nM
GI50 (SR leukemia): 4.1 nM
TGI (SR leukemia): 244 nM
GI50 (SW-620 colon): 4.26 nM and 2.5 nM
TGI (SW-620 colon): 115 nM and 261 nM
GI50 (T-47D breast): 3.88 nM and 2.5 nM
TGI (T-47D breast): 41.1 nM and 11.7 nM
GI50 (TK-10 renal): 3.19 nM and 2.5 nM
GI50 (U251 CNS): 11.7 nM and 4.76 nM
TGI (U251 CNS): 149 nM and 21 nM
GI50 (UACC-257 melanoma): 4.33 nM and 3.35 nM
TGI (UACC-257 melanoma): 49.6 nM and 15.6 nM
GI50 (UACC-62 melanoma): 4.12 nM and 2.5 nM
GI50 (UO-31 renal): 4.28 nM and 2.5 nM
TGI (UO-31 renal): 102 nM and 14.8 nM
